From patent US11053204B2, “Pyrimidinyloxy benzene derivatives as herbicides” (FMC Corporation, priority 2015, dated 2021)

What was measured:
Type in all cases: in vivo
[1] = tested on: ragweed (common ragweed, Ambrosia elatior); test: Test A postemergence, visual injury rating; details: 0 is no effect, 100 is complete control; for Ragweed plant response rating: 31 g ai/ha, 0 to 100 scale, approximately 10 days; for Ragweed plant response rating (0 to 100 scale): 125 g ai/ha
Text: (§1) Seeds of plant species selected from barnyardgrass (Echinochloa crus-galli), kochia (Kochia scoparia), ragweed (common ragweed, Ambrosia elatior), Italian ryegrass (Lolium multiflorum), large (Lg) crabgrass (Digitaria sanguinalis), giant foxtail (Setaria faberii), morningglory (Ipomoea spp.), pigweed (Amaranthus retroflexus), velvetleaf (Abutilon theophrasti), wheat (Triticum aestivum), and corn (Zea mays) were planted into a blend of loam soil and sand and treated preemergence with a directed soil spray using test chemicals formulated in a non-phytotoxic solvent mixture which included a surfactant.
(§2) At the same time, plants selected from these crop and weed species and also blackgrass (Alopecurus myosuroides), and galium (catchweed bedstraw, Galium aparine) were planted in pots containing the same blend of loam soil and sand and treated with postemergence applications of test chemicals formulated in the same manner. Plants ranged in height from 2 to 10 cm and were in the one- to two-leaf stage for the postemergence treatment. Treated plants and untreated controls were maintained in a greenhouse for approximately 10 days, after which time all treated plants were compared to untreated controls and visually evaluated for injury. Plant response ratings, summarized in Table A, are based on a 0 to 100 scale where 0 is no effect and 100 is complete control. A dash (-) response means no test result.

[2] = tested on: wheat (Triticum aestivum); test: Test A postemergence, visual injury rating; details: 0 is no effect, 100 is complete control; for Wheat plant response rating: 31 g ai/ha, 0 to 100 scale, approximately 10 days; for Wheat plant response rating (0 to 100 scale): 125 g ai/ha
Text: as §1, §2

[3] = tested on: Italian ryegrass (Lolium multiflorum); test: Test A postemergence, visual injury rating; details: 0 is no effect, 100 is complete control; for Ryegrass, Italian plant response rating: 31 g ai/ha, 0 to 100 scale, approximately 10 days; for Ryegrass, Italian plant response rating (0 to 100 scale): 125 g ai/ha
Text: as §1, §2

corn (Zea mays) = test: Test A postemergence, visual injury rating; details: 0 is no effect, 100 is complete control; for Corn plant response rating: 31 g ai/ha, 0 to 100 scale, approximately 10 days; for Corn plant response rating (0 to 100 scale): 125 g ai/ha
Text: as §1, §2

[4] = tested on: pigweed (Amaranthus retroflexus); test: Test A postemergence, visual injury rating; details: 0 is no effect, 100 is complete control; for Pigweed plant response rating: 31 g ai/ha, 0 to 100 scale, approximately 10 days; for Pigweed plant response rating (0 to 100 scale): 125 g ai/ha
Text: as §1, §2

[5] = tested on: barnyardgrass (Echinochloa crus-galli); test: Test A postemergence, visual injury rating; details: 0 is no effect, 100 is complete control; for Barnyardgrass plant response rating: 31 g ai/ha, 0 to 100 scale, approximately 10 days; for Barnyardgrass plant response rating (0 to 100 scale): 125 g ai/ha
Text: as §1, §2

kochia (Kochia scoparia) [6] = test: Test A postemergence, visual injury rating; details: 0 is no effect, 100 is complete control; for Kochia plant response rating: 31 g ai/ha, 0 to 100 scale, approximately 10 days; for Kochia plant response rating (0 to 100 scale): 125 g ai/ha
Text: as §1, §2

[7] = tested on: giant foxtail (Setaria faberii); test: Test A postemergence, visual injury rating; details: 0 is no effect, 100 is complete control; for Foxtail, Giant plant response rating: 31 g ai/ha, 0 to 100 scale, approximately 10 days; for Foxtail, Giant plant response rating (0 to 100 scale): 125 g ai/ha
Text: as §1, §2

[8] = tested on: blackgrass (Alopecurus myosuroides); test: Test A postemergence, visual injury rating; details: 0 is no effect, 100 is complete control; for Blackgrass plant response rating: 31 g ai/ha, 0 to 100 scale, approximately 10 days; for Blackgrass plant response rating (0 to 100 scale): 125 g ai/ha
Text: as §1, §2

[9] = tested on: galium (catchweed bedstraw, Galium aparine); test: Test A postemergence, visual injury rating; details: 0 is no effect, 100 is complete control; for Galium plant response rating: 31 g ai/ha, 0 to 100 scale, approximately 10 days; for Galium plant response rating (0 to 100 scale): 125 g ai/ha
Text: as §1, §2

[10] = tested on: ragweed (common ragweed, Ambrosia elatior); test: Test A preemergence, visual injury rating; details: for Plant response rating, Ragweed: 31 g ai/ha, 0 to 100 scale, 0 no effect, 100 complete control; for Ragweed plant response rating: 125 g ai/ha, 0 to 100 scale (0 no effect, 100 complete control)
Text: as §1, §2

[11] = tested on: Italian ryegrass (Lolium multiflorum); test: Test A preemergence, visual injury rating; details: for Plant response rating, Ryegrass, Italian: 31 g ai/ha, 0 to 100 scale, 0 no effect, 100 complete control; for Ryegrass, Italian plant response rating: 125 g ai/ha, 0 to 100 scale (0 no effect, 100 complete control)
Text: as §1, §2

[12] = tested on: pigweed (Amaranthus retroflexus); test: Test A preemergence, visual injury rating; details: for Plant response rating, Pigweed: 31 g ai/ha, 0 to 100 scale, 0 no effect, 100 complete control; for Pigweed plant response rating: 125 g ai/ha, 0 to 100 scale (0 no effect, 100 complete control)
Text: as §1, §2

[13] = tested on: barnyardgrass (Echinochloa crus-galli); test: Test A preemergence, visual injury rating; details: for Plant response rating, Barnyardgrass: 31 g ai/ha, 0 to 100 scale, 0 no effect, 100 complete control; for Barnyardgrass plant response rating: 125 g ai/ha, 0 to 100 scale (0 no effect, 100 complete control)
Text: as §1, §2

kochia (Kochia scoparia) [14] = test: Test A preemergence, visual injury rating; details: for Plant response rating, Kochia: 31 g ai/ha, 0 to 100 scale, 0 no effect, 100 complete control; for Kochia plant response rating: 125 g ai/ha, 0 to 100 scale (0 no effect, 100 complete control)
Text: as §1, §2

[15] = tested on: giant foxtail (Setaria faberii); test: Test A preemergence, visual injury rating; details: for Plant response rating, Foxtail, Giant: 31 g ai/ha, 0 to 100 scale, 0 no effect, 100 complete control; for Foxtail, Giant plant response rating: 125 g ai/ha, 0 to 100 scale (0 no effect, 100 complete control)
Text: as §1, §2

[16] = tested on: ducksalad (Heteranthera limosa); test: Test B flooded paddy test, plant response rating; details: 250 g ai/ha; Flood; scale of 0 to 100 where 0 is no effect and 100 is complete control; 13 to 15 days
Text: (§3) At time of treatment, test pots were flooded to 3 cm above the soil surface, treated by application of test compounds directly to the paddy water, and then maintained at that water depth for the duration of the test. Treated plants and controls were maintained in a greenhouse for 13 to 15 days, after which time all species were compared to controls and visually evaluated. […] A dash (-) response means no test result.

[17] = tested on: sedge, umbrella (small-flower umbrella sedge, Cyperus difformis); test: Test B flooded paddy test, plant response rating; details: 250 g ai/ha; Flood; scale of 0 to 100 where 0 is no effect and 100 is complete control; 13 to 15 days
Text: as §3

rice (Oryza sativa) = test: Test B flooded paddy test, plant response rating; details: 250 g ai/ha; Flood; scale of 0 to 100 where 0 is no effect and 100 is complete control; 13 to 15 days
Text: as §3

[18] = tested on: barnyardgrass (Echinochloa crus-galli); test: Test B flooded paddy test, plant response rating; details: 250 g ai/ha; Flood; scale of 0 to 100 where 0 is no effect and 100 is complete control; 13 to 15 days
Text: as §3

SMILES	Ragweed plant response rating [1]	Ragweed plant response rating (0 to 100 scale) [1]	Wheat plant response rating [2]	Wheat plant response rating (0 to 100 scale) [2]	Ryegrass, Italian plant response rating [3]	Ryegrass, Italian plant response rating (0 to 100 scale) [3]	Corn plant response rating (corn (Zea mays))	Corn plant response rating (0 to 100 scale) (corn (Zea mays))	Pigweed plant response rating [4]	Pigweed plant response rating (0 to 100 scale) [4]	Barnyardgrass plant response rating [5]	Barnyardgrass plant response rating (0 to 100 scale) [5]	Kochia plant response rating (kochia (Kochia scoparia) [6])	Kochia plant response rating (0 to 100 scale) (kochia (Kochia scoparia) [6])	Foxtail, Giant plant response rating [7]	Foxtail, Giant plant response rating (0 to 100 scale) [7]	Blackgrass plant response rating [8]	Blackgrass plant response rating (0 to 100 scale) [8]	Galium plant response rating [9]	Galium plant response rating (0 to 100 scale) [9]	further results
CC(C)COC(=O)c1c(Br)cccc1Oc1ncc(Cl)cn1 [Compound 1]	0	10	0	0	0	0	0	20	40	70	20	30	20	30	30	60	0	20	50	70	Plant response rating, Ragweed [10]: 0; Ragweed plant response rating [10]: 0; Plant response rating, Ryegrass, Italian [11]: 0; Ryegrass, Italian plant response rating [11]: 0; Plant response rating, Pigweed [12]: 20; Pigweed plant response rating [12]: 70; Plant response rating, Barnyardgrass [13]: 20; Barnyardgrass plant response rating [13]: 30; Plant response rating, Kochia (kochia (Kochia scoparia) [14]): 0; Kochia plant response rating (kochia (Kochia scoparia) [14]): 40; Plant response rating, Foxtail, Giant [15]: 30; Foxtail, Giant plant response rating [15]: 70; Plant response rating, Ducksalad [16]: 20; Plant response rating, Sedge, Umbrella [17]: 80; Plant response rating, Rice (rice (Oryza sativa)): 0; Plant response rating, Barnyardgrass [18]: 0
C=C(Cl)COC(=O)c1c(Br)cccc1Oc1ncc(Cl)cn1 [Compound 2]	0	0	0	0	0	20	10	20	60	80	30	40	50	90	30	60	0	30	60	90	Plant response rating, Ragweed [10]: 0; Ragweed plant response rating [10]: 0; Plant response rating, Ryegrass, Italian [11]: 0; Ryegrass, Italian plant response rating [11]: 10; Plant response rating, Pigweed [12]: 40; Pigweed plant response rating [12]: 90; Plant response rating, Barnyardgrass [13]: 10; Barnyardgrass plant response rating [13]: 50; Plant response rating, Kochia (kochia (Kochia scoparia) [14]): 30; Kochia plant response rating (kochia (Kochia scoparia) [14]): 70; Plant response rating, Foxtail, Giant [15]: 70; Foxtail, Giant plant response rating [15]: 100; Plant response rating, Ducksalad [16]: 30; Plant response rating, Sedge, Umbrella [17]: 100; Plant response rating, Rice (rice (Oryza sativa)): 0; Plant response rating, Barnyardgrass [18]: 0
C=C(C)COC(=O)c1c(Br)cccc1Oc1ncc(Cl)cn1 [Compound 3]	0	0	0	0	0	30	0	30	70	100	20	60	0	40	30	80	0	30	40	70	Plant response rating, Ragweed [10]: 0; Ragweed plant response rating [10]: 0; Plant response rating, Ryegrass, Italian [11]: 0; Ryegrass, Italian plant response rating [11]: 30; Plant response rating, Pigweed [12]: 50; Pigweed plant response rating [12]: 100; Plant response rating, Barnyardgrass [13]: 60; Barnyardgrass plant response rating [13]: 80; Plant response rating, Kochia (kochia (Kochia scoparia) [14]): 0; Kochia plant response rating (kochia (Kochia scoparia) [14]): 40; Plant response rating, Foxtail, Giant [15]: 70; Foxtail, Giant plant response rating [15]: 100; Plant response rating, Ducksalad [16]: 30; Plant response rating, Sedge, Umbrella [17]: 100; Plant response rating, Rice (rice (Oryza sativa)): 0; Plant response rating, Barnyardgrass [18]: 0
O=C(OCC(F)(F)C(F)(F)F)c1c(F)cccc1Oc1ncc(Br)cn1 [Compound 4]	0	0	0	0	0	0	0	0	0	0	0	0	0	0	0	0	0	0	0	0	Plant response rating, Ragweed [10]: 0; Ragweed plant response rating [10]: 0; Plant response rating, Ryegrass, Italian [11]: 0; Ryegrass, Italian plant response rating [11]: 0; Plant response rating, Pigweed [12]: 0; Pigweed plant response rating [12]: 0; Plant response rating, Barnyardgrass [13]: 0; Barnyardgrass plant response rating [13]: 0; Plant response rating, Kochia (kochia (Kochia scoparia) [14]): 0; Kochia plant response rating (kochia (Kochia scoparia) [14]): 0; Plant response rating, Foxtail, Giant [15]: 0; Foxtail, Giant plant response rating [15]: 0; Plant response rating, Ducksalad [16]: 0; Plant response rating, Sedge, Umbrella [17]: 0; Plant response rating, Rice (rice (Oryza sativa)): 0; Plant response rating, Barnyardgrass [18]: 0
O=C(OCC(F)(F)C(F)(F)F)c1c(F)cccc1Oc1ncc(Cl)cn1 [Compound 5]	0	0	0	0	0	0	0	0	0	0	0	0	0	0	0	0	0	0	0	0	Plant response rating, Ragweed [10]: 0; Ragweed plant response rating [10]: 0; Plant response rating, Ryegrass, Italian [11]: 0; Ryegrass, Italian plant response rating [11]: 0; Plant response rating, Pigweed [12]: 0; Pigweed plant response rating [12]: 0; Plant response rating, Barnyardgrass [13]: 0; Barnyardgrass plant response rating [13]: 0; Plant response rating, Kochia (kochia (Kochia scoparia) [14]): 0; Kochia plant response rating (kochia (Kochia scoparia) [14]): 0; Plant response rating, Foxtail, Giant [15]: 0; Foxtail, Giant plant response rating [15]: 0; Plant response rating, Ducksalad [16]: 0; Plant response rating, Sedge, Umbrella [17]: 0; Plant response rating, Rice (rice (Oryza sativa)): 0; Plant response rating, Barnyardgrass [18]: 0
